Measurements published in publication PMC2852842, “Marine Natural Meroterpenes: Synthesis and Antiproliferative Activity” (Marine Drugs, 2010).
Values after ≈ are worked out from the molar mass of the structure shown. Read-outs that look alike come from different tables or passages of the source.

What was measured:
[1] = system: PA1 ovary teratocarcinoma cells; experiment: Resazurin reduction test (RRT) cytotoxicity; format: cell-based, human; conditions: for IC50: Homo sapiens
Description: (§1) To provide information on their antiproliferative activity against solid cancers, the six meroterpenes were tested on three human carcinoma cell lines corresponding to cancers commonly observed in Western countries: MCF7 (breast), PA1 (ovary) and PC3 (prostate). To obtain additional information on their specificity for human cell lines and their specificity for cancer versus normal cell lines, each compound was tested versus L-929 murine immortalized cells and human normal fibroblasts. To mimic what happens in vivo, assays were carried out on exponentially growing cells cultured in the presence of 10% serum. The growth inhibitory effect was determined by measuring, after a 48 hour exposure to each chemical, the metabolic activity of treated and control cultures using the resazurin reduction test (RRT), which measures the amount of fluorescent resofurin produced by living cells. […] A dose-dependent inhibition of cell proliferation was only observed for epiconicol (3a). […] The toxicity of epiconicol observed in our model is in agreement with data obtained by Caroll and co-workers on a panel of cancer cells.
(§2) Human primary fibroblasts were purchased from Biopredic International (Rennes, France). Immortalized murine L929 cells and human MCF7 breast adenocarcinoma, PA1 ovary teratocarcinoma and PC3 androgen-resistant prostate carcinoma cells were obtained from the European Collection of Cell Cultures (ECACC, Salibury, UK). All were cultured at 37 °C under 5% CO2 and maintained in Eagle’s minimum essential medium (Gibco-BRL, Paisley, Scotland) supplemented with 10% fetal calf serum, vitamins and antibiotics (Gibco™, Cergy-Pontoise, France) as described previously.
(§3) The cytotoxicity of each treatment was determined after a 48 h exposure to each chemical (6 concentrations in triplicate, each in DMSO 0.5%) by means of the resazurin reduction test (RRT) that measures the amount of fluorescent resorufin produced by living cells. Assays were carried out at 530/590 nm accordingly to the procedure described by Barthomeuf et al.. IC50 values (mean ± S.D.) were calculated with the ALLFIT program and were expressed in μM.

[2] = system: MCF7 breast adenocarcinoma cells; experiment: Resazurin reduction test (RRT) cytotoxicity; format: cell-based, human; conditions: for IC50: Homo sapiens
Description: as §1, §2, §3

[3] = system: MCF7, PA1, PC3, L-929 cells and human normal fibroblasts; experiment: Resazurin reduction test (RRT) cytotoxicity, whole panel of cell lines; format: cell-based; conditions: span over the cell lines, 48 hour exposure, read-out: IC50, varied with the cell lines
Description: To provide information on their antiproliferative activity against solid cancers, the six meroterpenes were tested on three human carcinoma cell lines corresponding to cancers commonly observed in Western countries: MCF7 (breast), PA1 (ovary) and PC3 (prostate). To obtain additional information on their specificity for human cell lines and their specificity for cancer versus normal cell lines, each compound was tested versus L-929 murine immortalized cells and human normal fibroblasts. To mimic what happens in vivo, assays were carried out on exponentially growing cells cultured in the presence of 10% serum. The growth inhibitory effect was determined by measuring, after a 48 hour exposure to each chemical, the metabolic activity of treated and control cultures using the resazurin reduction test (RRT), which measures the amount of fluorescent resofurin produced by living cells. […] A dose-dependent inhibition of cell proliferation was only observed for epiconicol (3a). […]
as §3, with “Assays were carried out at 530/590 nm accordingly to the procedure described by Barthomeuf et al..” left out

[4] = system: Sphaerechinus granularis eggs; experiment: Inhibition of sea urchin egg division; format: cell-based; conditions: for IC50: read-out: IC50 S. granularis
Description: (§4) For cytotoxic assays on sea urchins, meroterpenes were dissolved in an egg suspension (described in the experimental section), and their ability to inhibit 50% of cell division (IC50) was estimated. Each experiment was carried out in triplicate and an average taken.
(§5) For antiproliferative assays on sea urchin eggs, we used a previously described method.

Micrococcus luteus = experiment: Microtiter Broth Dilution antibacterial assay; format: cell-based; conditions: for antibacterial effect (in words): M. luteus; for MIC: Micrococcus luteus, 24 h
Description: (§6) The Microtiter Broth Dilution Method on gram negative (Escherichia coli) and gram positive (Micrococcus luteus) bacteria was used. Meroterpenes dissolved in DMSO were added to bacteria suspensions (5:100 v:v) for 24 hours. The assay was carried out in triplicate. Bacterial growth was evaluated by absorbance measurement (630 nm). The minimum concentration that inhibits (MIC) bacterial growth was determined for each compound on each bacterial strain.
(§7) The antibacterial assay used was based on the previously described method published by the […].

Escherichia coli = experiment: Microtiter Broth Dilution antibacterial assay; format: cell-based; conditions: for antibacterial effect (in words): E. coli
Description: as §6, §7

[5] = system: Paracentrotus lividus eggs; experiment: Inhibition of sea urchin egg division; format: cell-based
Description: as §4, §5

Staphyclococcus aureus = system: Staphyclococcus aureus; parameters: method as in PMID 3404153, PMID 7608321; conditions: cited from earlier work
Micrococus luteus = system: Micrococus luteus; parameters: method as in PMID 17448456; conditions: cited from earlier work
Streptococcus faecalis = system: Streptococcus faecalis; parameters: method as in PMID 3404153, PMID 7608321; conditions: cited from earlier work
S.s granularis eggs = experiment: HPLC analysis of cytoplasmic extracts of treated sea urchin eggs; format: in vitro ADME, Sphaerechinus granularis; conditions: eggs treated with 5 μM
Description: To test the latter hypothesis, S.s granularis eggs were treated with 5 μM of methoxyconidiol, a concentration that inhibits their division. Sea urchin eggs were incubated 1, 40 and 90 minutes post-fertilization (p.f.) in the presence of methoxyconidiol. Cytoplasmic extracts of treated and control eggs were further prepared. Organic extracts of the cytoplasmic preparations were finally obtained and analyzed by HPLC (Figure 3).
Figure 3 HPLC analysis of methoxyconidiol (System WATERS, column: synergy 4 μm RP max; elution water: methanol under a gradient; UV detection 285 nm; flow: 0.3 mL/min) A: control compound (methoxyconidiol) B: analysis after Solid Phase Extraction at 1, 40 and 90 minutes after fertilization (min p.f.).
Preparation of cytoplasmic extracts was based on the technique described by Collas and Poccia. Gametes of P. lividus were collected in two separate beakers. Sperm was maintained undiluted on ice and eggs were stored at 19 °C until use. Sperm was diluted to 10% in Filtered Sea Water (FSW) and eggs were at 26 eggs/μL in FSW. […]
Cytoplasmic extracts of treated and control eggs were extracted with CH3OH and CH2Cl2 and analyzed by HPLC. […] This fraction was analyzed in HPLC (column: Phenomenex synergy 4μ max RP; elution with water and methanol under gradient, starting from 30% to 0% of water during 15 minutes; flow: 0.3 mL/min; detection photodiode array, UV at 285 nm).

[6] = system: L-929 murine immortalized cells; experiment: Resazurin reduction test (RRT) cytotoxicity; format: cell-based; conditions: Mus musculus
Description: as §1, §2, §3

human normal fibroblasts = experiment: Resazurin reduction test (RRT) cytotoxicity; format: cell-based; conditions: Fibroblast
Description: as §1, §2, §3

[7] = system: PC3 androgen-resistant prostate carcinoma cells; experiment: Resazurin reduction test (RRT) cytotoxicity; format: cell-based; conditions: Homo sapiens
Description: as §1, §2, §3

sea urchin embryos = system: sea urchin embryos; parameters: method as in PMID 17448456; conditions: cited from earlier work
[8] = Sphaerechinus granularis, 85 min
[9] = Paracentrotus lividus, 85 min, read-out: IC50 P. lividus, egg division, 85 minutes after fertilization

CC1=C[C@@H]2c3cc(O)ccc3OC(C)(C)[C@@H]2CC1 [3a, epiconicol]
cultures killed ([1]; PA1, at 5 μM): 30%
cultures killed ([2]; MCF7, at 5 μM): 30%
IC50 [3]: 37 to 69 µM
IC50 [4, 8]: 9.8 ± 1.3 µM
antibacterial effect (in words) (Micrococcus luteus): weakly active
MIC (Micrococcus luteus): 100 µM (≈ 24.4 µg/mL)
antibacterial effect (in words) (Escherichia coli): weakly active
MIC (Escherichia coli; Escherichia coli, 24 h): 800 µM (≈ 195 µg/mL)

COc1ccc2c(c1)[C@H]1C=C(C)CC[C@H]1C(C)(C)O2 (relative stereo) [3b]
IC50 [5, 9]: > 25 µM
IC50 [4, 8]: > 25 µM
antibacterial effect (in words) (Micrococcus luteus): totally inactive
antibacterial effect (in words) (Escherichia coli): totally inactive

COc1ccc2c(c1)-c1cc(C)ccc1C(C)(C)O2 [4b, O-methyldidehydroconicol]
IC50 [5, 9]: > 25 µM
IC50 [4, 8]: > 25 µM
antibacterial effect (in words) (Micrococcus luteus): totally inactive
antibacterial effect (in words) (Escherichia coli): totally inactive

CC(C)=CCCC1(C)C=Cc2cc(O)ccc2O1 (centres unmarked) [cordiachromene A]
growth inhibition (in words) (Staphyclococcus aureus): moderately inhibits
growth inhibition (in words) (Micrococus luteus): moderately inhibits
growth inhibition (in words) (Streptococcus faecalis): moderately inhibits

COC(C)(C)[C@H]1CCC(C)=C[C@H]1c1cc(O)ccc1O [5a, methoxyconidiol]
IC50 ([1]; PA1, 48 hour exposure, 10% serum, RRT, read-out: IC50): > 100 µM
IC50 ([2]; MCF7, 48 hour exposure, 10% serum, RRT, read-out: IC50): > 100 µM
IC50 ([5]; egg division, 85 minutes after fertilization, listed as methoxyconidiol, read-out: IC50 P. lividus): 0.8 µM
IC50 ([5]; egg division, 85 minutes after fertilization, read-out: IC50 P. lividus): 4.3 ± 0.1 µM
IC50 ([4]; egg division, 85 minutes after fertilization, listed as methoxyconidiol): 4.3 µM
IC50 ([4]; egg division, 85 minutes after fertilization): 0.8 µM
melting point: 197 °C
level of the compound in cytoplasmic extracts during incubation (S.s granularis eggs; 1, 40 and 90 minutes post-fertilization, HPLC): did not decrease significantly
penetration through sea urchin cell membranes (S.s granularis eggs; presence in the cytoplasm): penetrates through sea urchin cell membranes
IC50 ([6]; L929, L-929, 48 hour exposure, 10% serum, RRT, read-out: IC50): > 100 µM
IC50 (human normal fibroblasts; human normal fibroblasts, 48 hour exposure, 10% serum, RRT, read-out: IC50): > 100 µM
IC50 ([7]; PC3, 48 hour exposure, 10% serum, RRT, read-out: IC50): > 100 µM
effect on sea urchin embryos during cell division (sea urchin embryos): disturbs mitotic spindle assembly leading to a cell cycle arrest during metaphase/anaphase transition

Cc1ccc2c(c1)-c1cc(O)ccc1OC2(C)C [4a, didehydroconicol]
IC50 ([1]; 48 h): > 100 µM
IC50 ([2]; MCF7, 48 h): > 100 µM
IC50 [5, 9]: 11.3 ± 0.8 µM
activity on egg division (in words) ([4]; S. granularis eggs): inactive
IC50 [4, 8]: > 25 µM
IC50 ([6]; L929, 48 h): > 100 µM
IC50 (human normal fibroblasts; Homo sapiens, 48 h): > 100 µM
IC50 ([7]; 48 h): > 100 µM
antibacterial effect (in words) (Micrococcus luteus): weakly active
MIC (Micrococcus luteus): 500 µM (≈ 120 µg/mL)

COc1ccc(O)c([C@@H]2C=C(C)CC[C@@H]2C(C)(C)OC)c1 (relative stereo) [5b]
IC50 ([5]; Paracentrotus lividus, 85 min, egg division, 85 minutes after fertilization, read-out: IC50 P. lividus): > 25 µM
IC50 ([4]; Sphaerechinus granularis, 85 min, egg division, 85 minutes after fertilization): > 25 µM
